According to US11226337B2, “Chemoproteomic profiling of protein electrophilic and oxidative post-translational modifications” (Zenagem, LLC, priority 2017, dated 2022):

Target: T1, MAN2B1 Lysosomal alphamannosidase (O00754) (Homo sapiens, UniProt O00754)
T1 construct: shared by both the endogenous and recombinant forms of these proteins; endogenous in cells; host or cells: HEK293T and MDA-MB-231
T1 sequence (O00754 50-1011): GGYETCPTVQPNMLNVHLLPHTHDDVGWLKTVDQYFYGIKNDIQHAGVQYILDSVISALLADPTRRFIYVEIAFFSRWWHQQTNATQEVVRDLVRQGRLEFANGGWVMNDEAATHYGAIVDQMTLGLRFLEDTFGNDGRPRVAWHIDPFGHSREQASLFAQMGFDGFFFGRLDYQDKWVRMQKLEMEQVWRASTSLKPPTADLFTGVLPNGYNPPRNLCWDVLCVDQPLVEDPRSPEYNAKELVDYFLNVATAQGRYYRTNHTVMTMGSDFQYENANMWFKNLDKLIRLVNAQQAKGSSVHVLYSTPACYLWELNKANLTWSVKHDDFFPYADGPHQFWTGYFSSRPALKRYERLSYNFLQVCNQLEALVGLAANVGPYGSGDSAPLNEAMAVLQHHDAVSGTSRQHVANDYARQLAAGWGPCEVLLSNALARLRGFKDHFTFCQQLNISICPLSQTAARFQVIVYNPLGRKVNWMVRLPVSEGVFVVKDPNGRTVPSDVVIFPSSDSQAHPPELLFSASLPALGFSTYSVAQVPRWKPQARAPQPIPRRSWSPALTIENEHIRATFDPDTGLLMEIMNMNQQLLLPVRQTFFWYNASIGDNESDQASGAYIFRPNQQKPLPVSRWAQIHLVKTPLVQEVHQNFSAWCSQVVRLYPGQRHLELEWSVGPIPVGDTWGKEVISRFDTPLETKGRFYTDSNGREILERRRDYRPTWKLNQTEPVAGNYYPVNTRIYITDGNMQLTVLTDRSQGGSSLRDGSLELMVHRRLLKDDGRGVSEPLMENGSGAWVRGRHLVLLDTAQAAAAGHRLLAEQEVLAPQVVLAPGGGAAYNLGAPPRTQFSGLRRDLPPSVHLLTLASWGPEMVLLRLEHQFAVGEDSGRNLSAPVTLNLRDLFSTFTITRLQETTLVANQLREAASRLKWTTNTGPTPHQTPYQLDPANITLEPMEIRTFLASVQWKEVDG
Assay: SILAC RP-ABPP
Assay type: cell-based
Conditions: SILAC H/L, MDA-MB-231

| Compound | enrichment ratioavg (probe 1 3 mM 0.5 h vs probe 3) | competition ratioavg (probe 1 vs probe 1+10x probe 3) | enrichment ratioavg (probe 2 1 mM 0.5 h vs probe 4) | competition ratioavg (probe 2 vs probe 2+10x probe 4) |
| --- | --- | --- | --- | --- |
| C#CCNN.Cl [probe 1, prop-2-yn-1-ylhydrazine hydrochloride] | 20 | 8 |  |  |
| C#CCCNC(=O)c1ccc(NN)cc1.Cl [probe 2, N-(but-3-yn-1-yl)-4-hydrazinylbenzamide hydrochloride] |  |  | 20 | 4 |
